Measurements reported in US10314816B2, “Antimicrobial compounds, compositions and methods of use thereof” (Wisconsin Alumni Research Foundation, priority 2012, dated 2019).

What was measured:
[1] = test system: S. aureus FRI 100; assay: Minimum biofilm eradication concentration (MBEC); assay type: cell-based, Staphylococcus aureus; conditions: S. aureus FRI 100 biofilm
Experimental: Determination of the minimum biofilm inhibitory concentration of growth (bMIC) and biofilm eradication concentration (MBEC). Overnight cultures of C. crescentus and S. aureus were grown and diluted 100-fold into appropriate nutrient media. Aliquots of the diluted suspension were transferred into wells of 96-well plates (150 μL/well). 2-fold serial dilutions were performed for compound-containing wells. For every experiment, three replicates for each compound concentration tested were included. After transferring aliquots of the suspension, the plates were closed with specialized lids that have protruding pins (Nunc STP System), and the plates were sealed using Parafilm®. The plates were incubated in a static incubator at 30° C. (C. crescentus) or 37° C. (S. aureus) for 24 hours. After the cells had formed biofilms on the surface of the pins, the pins were rinsed by dipping them in M2 (C. crescentus) or PBS (S. aureus) solutions. To rinse the pins, clean, sterile 96-well plates were used (aliquots of 200 μL/well); each rinse lasted 10 sec. After washing away planktonic cells loosely bound to biofilms, the pins were inserted into a 96-well plate that was pre-aliquoted with nutrient media containing antibiotics (2-fold dilutions, a final volume of 150 μL/well). The plates were sealed with Parafilm®, and incubated for 17 hours, and the bMIC was measured at the end of the incubation by visual inspection. After the bMIC run, the rinse steps were repeated to remove planktonic cells, and the pins were inserted into a 96-well plate that was pre-aliquoted with drug-free nutrient media (aliquots of 150 μL/well). The plates were sealed with Parafilm®, incubated for 24 hours, and the MBEC was measured at the end of the incubation by visual inspection.
After performing bMIC experiments, biofilms growing on the pins of the lid were transferred to nutrient media devoid of antibiotics to measure the minimum concentration of antibiotic that prevented planktonic growth from biofilms in antibiotic-free nutrient media (MBEC). […]

[2] = test system: B. subtilis cells; assay: Measurement of ΔΨ using DiOC2, flow cytometry; assay type: cell-based, Bacillus subtilis; conditions: 20 minutes of treatment, p<0.001
Experimental: Fluorescence microscopy and flow cytometry to measure ΔΨ. The fluorescent probe, 3,3′-diethyloxacarbocyanine iodide (DiOC2) was used to measure ΔΨ in DMSO and in compound-treated cells. To eliminate the possibility of an interaction between the probe and compounds, the fluorescence intensity of solutions of DiOC2 was measured in the presence and absence of the compounds as described in the art. To measure ΔΨ in B. subtilis cells, flow cytometry was used. Cell suspensions were labeled with 30 μM DiOC2 and filtered through a Nylon filter containing 60-μm diameter pores. The fluorescence of these cells was measured using a BD LSR II flow cytometer. The following instrument settings were used for detection: low flow rate, 488 nm excitation laser, 530/30 nm emission filter for green fluorescence, and 575/26 nm emission filter for red fluorescence. […] First, a gate was drawn around the region where cells were detected in the forward versus side scatter area plot. Gating enabled the exclusion of any non-cellular materials in the sample that the instrument detected. The ratio of red-to-green fluorescence was calculated for each particle within the gate using the software, and the resulting data was exported to GraphPad Prism to create box plots shown in FIG. 5. Statistical parameters were calculated using the Kruskal-Wallis non-parametric one-way analysis of variation (GraphPad InStat). […]

[3] = test system: C. crescentus CB15N; assay: MIC of bacterial growth, macrodilution (Table 2); assay type: cell-based, Caulobacter crescentus; conditions: Caulobacter vibrioides, actively growing cells, read-out: MIC
Experimental: Bacterial strains and growth conditions. Luria-Bertani (LB) media (10 g/L tryptone, 10 g/L NaCl, 5 g/L yeast extract, pH 7.2) was used to grow B. subtilis 168, S. aureus FRI100, and P. aeruginosa K1115 strains. For P. aeruginosa PAO1 and K1119 strains and two E. coli BW25113 strains, M8 minimal media (241 mg/L MgSO4, 4 mg/L glucose, 5 mg/L casamino acids, 12.8 g/L Na2HPO4.7H2O, 3 g/L KH2PO4, and 0.5 g/L NaCl) was used. PYE media (2 g/L peptone, 1 g/L yeast extract, 0.8 mM MgSO4, and 0.5 mM CaCl2) was used for culturing C. crescentus cells at 30° C. All cultures were grown at 37° C., except for C. crescentus (30° C.). All cultures were grown while shaking at 200 rpm.
Determination of the minimum inhibitory concentration (MIC) of bacterial growth. The MIC of various organisms in liquid media was determined using the macrodilution method according to the NCCLS guidelines. For the starting inoculum, cultures were diluted to contain approximately 5×10^5 cells/mL in growth media. To create a two-fold dilution series for the macrodilution technique, each compound was added to the first culture tube (4 mL total volume) at the highest concentration. 2 mL of this culture was diluted into an equal volume of inoculated media (a two-fold dilution). The final volume for each culture was 2 mL.

[4] = test system: S. aureus FRI 100; assay: MIC of bacterial growth, macrodilution (Table 2); assay type: cell-based; conditions: Staphylococcus aureus, FRI100; S. aureus FRI 100, actively growing cells
Experimental: Bacterial strains and growth conditions. Luria-Bertani (LB) media (10 g/L tryptone, 10 g/L NaCl, 5 g/L yeast extract, pH 7.2) was used to grow B. subtilis 168, S. aureus FRI100, and P. aeruginosa K1115 strains. […] All cultures were grown at 37° C., except for C. crescentus (30° C.). All cultures were grown while shaking at 200 rpm.

SMILES | MBEC [1] [µM] | ΔΨ (λ576/λ530 of DiOC2) [2] | MIC [3] [µM] | MIC [4] [µM]
N#CC(C#N)=NNc1cccc(Cl)c1 [CCCP, carbonyl cyanide m-chlorophenyl hydrazone] | 80 | significant decrease in λ576/λ530 | 5 | 1.25
OCC(CO)(CO)NCC(O)Cn1c2ccc(Cl)cc2c2cc(Cl)ccc21 (centres unmarked) [DCAP, 2-((3-(3,6-dichloro-9H-carbazol-9-yl)-2-hydroxypropyl)amino)-2-(hydroxymethyl)propane-1,3-diol] | >200 | significant decrease in λ576/λ530 | 15 | 50
